Values joined by “and” are separate entries in the source; they are usually repeats but may differ in a detail not shown here. Identical values can stand only once.
Legend:
[1] = target: T1, Muscarinic acetylcholine receptor M2 (Sus scrofa, UniProt P06199)
T1 sequence (P06199 whole entry): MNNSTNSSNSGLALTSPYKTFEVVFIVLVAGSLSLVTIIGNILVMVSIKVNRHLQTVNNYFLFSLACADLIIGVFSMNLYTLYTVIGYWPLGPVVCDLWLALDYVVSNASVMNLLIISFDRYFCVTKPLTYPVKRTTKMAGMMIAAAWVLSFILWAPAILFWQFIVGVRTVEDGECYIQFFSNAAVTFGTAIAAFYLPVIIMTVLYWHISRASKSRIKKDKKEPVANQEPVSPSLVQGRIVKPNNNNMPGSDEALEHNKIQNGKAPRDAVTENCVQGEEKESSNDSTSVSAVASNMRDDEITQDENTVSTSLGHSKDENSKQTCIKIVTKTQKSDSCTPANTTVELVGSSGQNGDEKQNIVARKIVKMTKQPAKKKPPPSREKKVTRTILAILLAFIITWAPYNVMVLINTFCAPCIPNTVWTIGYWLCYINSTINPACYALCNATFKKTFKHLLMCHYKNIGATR

[2] = target: T2, Muscarinic acetylcholine receptor M2 (Homo sapiens, UniProt P08172)
T2 sequence (P08172 whole entry): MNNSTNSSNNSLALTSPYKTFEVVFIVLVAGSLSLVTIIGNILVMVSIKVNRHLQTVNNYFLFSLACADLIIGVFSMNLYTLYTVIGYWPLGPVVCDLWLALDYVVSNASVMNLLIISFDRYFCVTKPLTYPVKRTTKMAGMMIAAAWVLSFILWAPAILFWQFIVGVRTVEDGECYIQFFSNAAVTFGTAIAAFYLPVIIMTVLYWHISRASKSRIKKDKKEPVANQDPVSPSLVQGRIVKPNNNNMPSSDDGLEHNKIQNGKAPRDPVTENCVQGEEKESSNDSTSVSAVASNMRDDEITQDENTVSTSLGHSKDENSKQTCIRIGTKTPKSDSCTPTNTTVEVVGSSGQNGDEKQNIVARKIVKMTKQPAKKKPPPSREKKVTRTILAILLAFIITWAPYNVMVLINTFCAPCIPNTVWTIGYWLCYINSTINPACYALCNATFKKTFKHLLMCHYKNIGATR

[3] = target: T3, Muscarinic acetylcholine receptor M2 (Rattus norvegicus, UniProt P10980)
T3 sequence (P10980 whole entry): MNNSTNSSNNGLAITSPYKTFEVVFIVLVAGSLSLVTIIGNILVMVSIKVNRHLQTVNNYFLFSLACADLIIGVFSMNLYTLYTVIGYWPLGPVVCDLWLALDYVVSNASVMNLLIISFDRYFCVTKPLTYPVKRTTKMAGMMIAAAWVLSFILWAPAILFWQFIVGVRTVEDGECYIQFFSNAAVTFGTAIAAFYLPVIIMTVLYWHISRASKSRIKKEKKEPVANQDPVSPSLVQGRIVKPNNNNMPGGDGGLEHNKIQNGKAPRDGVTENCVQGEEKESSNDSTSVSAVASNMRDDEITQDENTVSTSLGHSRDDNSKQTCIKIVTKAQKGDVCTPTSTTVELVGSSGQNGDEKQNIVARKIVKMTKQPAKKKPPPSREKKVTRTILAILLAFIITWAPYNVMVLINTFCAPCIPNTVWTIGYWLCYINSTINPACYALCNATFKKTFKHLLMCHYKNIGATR

SMILES | Ki [1] | Ki [2] | Ki [3]
CCN(CC)CC1CCCCN1CC(=O)N1c2ccccc2C(=O)Nc2cccnc21 (centres undefined) [(AF-DX 116) 11-[2-(2-Diethylaminomethyl-piperidin-1-yl)-acetyl]-5,11-dihydro-benzo[e]pyrido[3,2-b][1,4]diazepin-6-one] | 28.8 nM and 21.8 nM | 99.6 nM and 17.4 nM | 31.1 nM and 26.9 nM
CN1CCN(CC(=O)N2c3ccccc3C(=O)Nc3cccnc32)CC1 [11-[(4-methylpiperazin-1-yl)acetyl]-5,11-dihydro-6H-pyrido[2,3-b][1,4]benzodiazepin-6-one] | 80.7 nM and 276 nM |  | 

Source: BindingDB's records for PubMed 2746503 (Universit&Eacute, 1989)
